Patent US20240270758A1, “PYRIDINO-OR PYRIMIDO-CYCLIC COMPOUND, PREPARATION METHOD THEREFOR AND MEDICAL USE THEREOF” (Genfleet Therapeutics (Shanghai) Inc., priority 2021, published 2024)

Legend:
[1] = test system: p-ERK in AGS cells (KRAS^G12D mutation); assay: Cell p-ERK detection assay; type: cell-based, human; settings: 3 h incubation, HTRF
Method in brief: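 AGS cells (KRAS G12D, ~20,000/well in F12K+10% FBS) treated next day with compound at 3.16-fold dilutions, 0.1% DMSO final, for 3 h. Lysates assayed for ERK phospho-T202/Y204 by HTRF after 4 h; inhibition vs DMSO and blank, IC50 from four-parameter fit.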

[2] = test system: AGS cells (KRAS^G12D mutation); assay: Cell proliferation inhibition assay (3D, CellTiter-Glo), AGS; type: cell-based, human; settings: 3D cell model, 5 days
Method in brief: (§1)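 3D spheroids of AsPC-1 (800 cells/well, RPMI-1640) or AGS (400 cells/well, F-12K), 10% FBS, seeded overnight, then exposed 5 days to 3.16-fold compound dilutions (0.1% DMSO final). CellTiter-Glo 3D luminescence gives inhibition relative to DMSO and medium blanks; IC50 from four-parameter fit.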

[3] = biological target: KRAS^wt (wild type) protein binding to RBD region fragment of RAF1 protein (Homo sapiens (Human), UniProt P01116); assay: KRAS-RAF1 binding assay (HTRF), KRAS wild type; settings: GST-RAF1-RBD, GTP
Procedure: (§2) GST-RAF1-RBD was purchased from BPS Bioscience; Cat. NO.: 100519; KRAS^G12D was purchased from BPS Bioscience; Cat. NO.: 100623; KRAS^wt was purchased from Reactionbiology; GTP was purchased from Sigma; Cat. NO.: G8877; Mab Anti GST-XL665 was purchased from cisbio; Cat. NO.: 61GSTXLF; Eu-W1024-anti-6×HIS was purchased from PE; Cat. NO.: AD0111; ProxiPlate-384-Plates was purchased from PerkinElmer; Cat. NO.: 6008289; DMSO was purchased from VWR AMRESCO; Cat. NO.: 0231-500ML; microplate reader was purchased from PerkinElmer; Cat. NO.: Envison;
(§3) This experiment is intended to investigate the inhibitory effect of compounds on the binding of KRAS^G12D mutant protein or KRAS^Wt (wild type) protein to fragments of the RBD region fragment of RAF1 protein. A 500×3-fold gradient concentration stock of compound was prepared using DMSO and diluted 50-fold into a 10× stock of compound using reaction buffer. To the reaction wells of an ELISA plate (ProxiPlate-384-Plates), was first added 3 µL of His-KRAS^G12D protein or KRAS^wt protein, then added 1 μL of 200 µM GTP and incubated for 30 min, then added 2 μL of 10× compound or reaction buffer with 2% DMSO (positive control) and incubated for 30 min, then added 4 μL of GST-RAF1-RBD protein or reaction buffer (negative control) and incubated for 15 min, then added […] anti-His antibody and XL665-labeled anti-GST antibody mixed well in advance and incubated for 60 min before reading HTRF signal by microplate reader. The inhibition ratio of compounds on KRAS protein (G12D mutant or wild type) and RAF1 binding was calculated IR (%)=(positive control signal-compound well signal)/(positive control signal-negative control signal)×100% and IC50 values were calculated by fitting compound concentrations and corresponding inhibition ratios using the Prism 8 four-parameter method. […] While the inhibition IC50 values of the compounds on the binding of KRAS^wt (wild type) protein to the RBD region fragment of RAF1 protein was more than 40 nM or 100 nM, or more than 500 nM, or even more than 1 μM or 2 μM.

[4] = test system: AsPC-1 cells (KRAS^G12D mutation); assay: Cell proliferation inhibition assay (3D, CellTiter-Glo), AsPC-1; type: cell-based, human; settings: 3D cell model, 5 days
Method in brief: as §1

[5] = biological target: KRAS^G12D mutant protein binding to RBD region fragment of RAF1 protein (Homo sapiens (Human), UniProt P01116, G12D); assay: KRAS-RAF1 binding assay (HTRF), KRAS G12D; settings: His-KRAS^G12D, GST-RAF1-RBD, GTP
Procedure: as §2, §3

[6] = Mice pharmacokinetic evaluation experiment; type: in vivo; settings: male, ICR, mouse, mice plasma; for Vd / half-life: IV 1 mg/kg; for AUC / Cmax: PO 100 mg/kg
From the text: Purpose of the experiment: male ICR mice were used as test animals to determine the drug concentration in plasma at different time points after intravenous and intragastric administration of test compounds by LC/MS/MS method. The pharmacokinetic behavior of the test compound in mice was studied to evaluate its pharmacokinetic characteristics.
Experimental protocol: laboratory animals: twelve healthy adult male ICR mice, weighing about 30 g, were randomly divided into two groups, 6 mice in IV group and 6 mice in PO group, N=3/time point, with semi-continuous blood collection. Animals were purchased from Vital River Laboratory Animal Technology Co., Ltd.
Drug preparation: IV group: taking 10 mL sample solution as an example, weighing 2 mg sample, followed by adding 0.5 mL DMSO, […], then adding […] HP-β-CD, finally dilute to 10 mL with water, stirring and ultrasound to reach 0.2 mg/mL clear state. PO group: weighing an appropriate amount of samples and preparing them according to the solvent ratio of the IV group, and evenly reaching the state of 10 mg/mL after stirring and ultrasound. Administration: after fasting for one night, intravenous administration was performed in the IV group, with an administration volume of 5 mL/kg and a dose of 1 mg/kg: the PO group was administered intragastrically a dose volume of 10 mL/kg and a dose of 100 mg/kg.
Experimental operation: after the test compounds were administered to the male ICR mice in the intravenous injection group and the intragastric administration group, the blood 110 ul were collected at time points of 0.25, 0.5, 1, 2, 4, 7, and 24 h, and stored in a commercial anticoagulant tube pre-filled with K2EDTA. The plasma was separated by centrifugation for 15 min and stored at −70° C. Animals were fed 4 h after administration. The plasma levels of test compounds following intravenous and intragastric administration in mice were determined by LC/MS/MS method. The linear range of the method was 1-3000 ng/ml; Plasma samples were analyzed after treatment with acetonitrile precipitated protein.

Sequence of KRAS^G12D mutant protein binding to RBD region fragment of RAF1 protein (P01116-2 other isoform, or with tags, fused parts or gaps G12D): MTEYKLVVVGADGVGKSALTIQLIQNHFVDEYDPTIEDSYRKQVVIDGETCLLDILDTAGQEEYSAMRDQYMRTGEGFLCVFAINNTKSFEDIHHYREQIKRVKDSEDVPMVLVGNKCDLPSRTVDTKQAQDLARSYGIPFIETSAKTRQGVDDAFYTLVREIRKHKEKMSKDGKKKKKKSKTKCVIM
Sequence of KRAS^wt (wild type) protein binding to RBD region fragment of RAF1 protein (P01116-2 other isoform, or with tags, fused parts or gaps): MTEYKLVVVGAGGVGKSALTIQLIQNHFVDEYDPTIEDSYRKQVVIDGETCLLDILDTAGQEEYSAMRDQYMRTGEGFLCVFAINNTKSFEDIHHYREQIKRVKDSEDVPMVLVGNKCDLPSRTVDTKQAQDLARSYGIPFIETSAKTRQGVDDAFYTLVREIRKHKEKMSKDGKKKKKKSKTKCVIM

Row | IC50 [1] [nM] | IC50 [2] [nM] | IC50 [4] [nM] | SMILES | IC50 [3] [nM] | IC50 [5] [nM] | IC50 ([1]; Homo sapiens, AGS, 3 h) [nM] | IC50 ([2]; Homo sapiens, AGS, 120 h) [nM] | IC50 ([4]; Homo sapiens, ASPC1, 120 h) [nM] | Vd [6] [L/kg] | half-life [6] [h] | AUC [6] [ng·h/mL] | Cmax [6] [ng/mL]
1 | 7.57 | 45.3 | 75.5 | C#Cc1cccc2cc(O)cc(-c3ncc4c(N5CC6CCC(C5)N6)nc(OCC56CCCN5CCC(=C)C6)nc4c3F)c12 [Example Z18, 4-(4-((1R,5S)-3,8-diazabicyclo[3.2.1]octan-3-yl)-8-fluoro-2-((7-methylenehexahydroindolin-8a(1H)-yl)methoxy)pyrido[4,3-d]pyrimidin-7-yl)-5-ethynylnaphthalen-2-ol] | > 1000 | 59.4 | – | – | – | – | – | – | –
2 | – | – | – | C#Cc1cccc2cc(O)cc(-c3ncc4c(N5C[C@H]6CC[C@@H](C5)N6)nc(OCC56CCN5CC(=C)C6)nc4c3F)c12 (stereo partly drawn) [Example Z19, 4-(4-((1R,5S)-3,8-diazabicyclo[3.2.1]octan-3-yl)-8-fluoro-2-((3-methylene-1-azabicyclo[3.2.0]heptan-5-yl)methoxy)pyrido[4,3-d]pyrimidin-7-yl)-5-ethynylnaphthalen-2-ol] | 67.8 | 46 | 9.03 | 31.7 | 68.3 | – | – | – | –
3 | – | – | – | C#Cc1cccc2cc(O)cc(-c3ncc4c(N5C[C@H]6C=C[C@@H](C5)N6)nc(OC[C@@]56CCCN5C[C@H](F)C6)nc4c3F)c12 [Example Z7, 4-(4-((1R,5S)-3,8-diazabicyclo[3.2.1]oct-6-en-3-yl)-8-fluoro-2-(((2R,7aS)-2-fluorotetrahydro-1H-pyrrolizin-7a(5H)-yl)methoxy)pyrido[4,3-d]pyrimidin-7-yl)-5-ethynylnaphthalen-2-ol] | 1030 | 72.6 | 12 | 32.6 | 433 | – | – | – | –
4 | 2.86 | 7.7 | 9.3 | C#Cc1cccc2cc(O)cc(-c3c(F)cc4c(N5C[C@H]6CC[C@@H](C5)N6)nc(OCC56CCCN5CC(=C)C6)nc4c3F)c12 (stereo partly drawn) [Example Z20] | 110 | 105 | – | – | – | – | – | – | –
5 | – | – | – | C#Cc1c(F)ccc2cc(O)cc(-c3ncc4c(N5C[C@H]6CC[C@@H](C5)N6)nc(OCC56CC(=C)CN5CC(=C)C6)nc4c3F)c12 [Example Z194, 4-(4-((1R,5S)-3,8-diazabicyclo[3.2.1]octan-3-yl)-2-((2,6-dimethylenetetrahydro-1H-pyrrolizin-7a(5H)-yl)methoxy)-8-fluoropyrido[4,3-d]pyrimidin-7-yl)-5-ethynyl-6-fluoronaphthalen-2-ol] | – | – | 0.69 | 1.4 | 4.6 | 16.9 | 11.2 | 2840 | 560
6 | – | – | – | C#Cc1c(F)ccc2cc(O)cc(-c3ncc4c(N5CC6CCC(C5)N6)nc(OC[C@@]56CCCN5C[C@H](F)C6)nc4c3F)c12 [MRTX1133, reference compound] | – | – | – | – | – | 14.1 | 5.15 | 745 | 279
7 | – | – | – | C#Cc1cccc2cc(O)cc(-c3ncc4c(N5C[C@H]6CC[C@@H](C5)N6)nc(OCC56CCCN5CC(=C(C)C)C6)nc4c3F)c12 (stereo partly drawn) [Example Z14, 4-(4-((1R,5S)-3,8-diazabicyclo[3.2.1]octan-3-yl)-8-fluoro-2-((2-(propan-2-ylidene)tetrahydro-1H-pyrrolizin-7a(5H)-yl)methoxy)pyrido[4,3-d]pyrimidin-7-yl)-5-ethynylnaphthalen-2-ol] | 110 | 39.6 | 10.1 | 27.4 | 143 | – | – | – | –
8 | – | – | – | C#Cc1cccc2cc(O)cc(-c3ncc4c(N5C[C@H]6CC[C@@H](C5)N6)nc(OCC56CCCN5CC=C6CC)nc4c3F)c12 (stereo partly drawn) [Example Z16, 4-(4-((1R,5S)-3,8-diazabicyclo[3.2.1]octan-3-yl)-2-((7-ethyl-2,3-dihydro-1H-pyrrolizin-7a(5H)-yl)methoxy)-8-fluoropyrido[4,3-d]pyrimidin-7-yl)-5-ethynylnaphthalen-2-ol] | > 1000 | 60.7 | 54.9 | 92.6 | 555 | – | – | – | –
9 | – | – | – | C#Cc1c(F)ccc2cc(O)cc(-c3ccc4c(N5C[C@H]6CC[C@@H](C5)N6)nc(OCC56CCCN5CCC6)nc4c3F)c12 [Example Z9, 4-(4-((1R,5S)-3,8-diazabicyclo[3.2.1]octan-3-yl)-8-fluoro-2-((tetrahydro-1H-pyrrolizin-7a(5H)-yl)methoxy)quinazolin-7-yl)-5-ethynyl-6-fluoronaphthalen-2-ol] | 261 | 79.6 | 23.7 | 145 | 300 | – | – | – | –

Row | SMILES | IC50 [1] [nM] | IC50 [2] [nM] | IC50 [4] [nM] | IC50 [3] [nM] | IC50 [5] [nM] | IC50 ([1]; Homo sapiens, AGS, 3 h) [nM] | IC50 ([2]; Homo sapiens, AGS, 120 h) [nM] | IC50 ([4]; Homo sapiens, ASPC1, 120 h) [nM] | Vd [6] [L/kg] | half-life [6] [h] | AUC [6] [ng·h/mL] | Cmax [6] [ng/mL]
10 | C#Cc1c(F)ccc2cc(O)cc(-c3ncc4c(N5C[C@H]6CC[C@@H](C5)N6)nc(OCC56CCCN5CC(=C)C6)nc4c3F)c12 (stereo partly drawn) [Example Z3] | 2.11 | 3 | 16 | 64.5 | 16.2 | – | – | – | – | – | – | –
